Tests used:
Type in all cases: in vivo
[1] = system: johnsongrass (Sorghum halepense); assay: Test C postemergence; conditions: Sorghum halepense, post-emergence, 336 h, Postemergence, scale 0 to 100, read-out: Plant response rating, Johnsongrass
In short: (§1)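 After preemergence treatment of seeds in loam-sand soil or foliar treatment at the 1- to 4-leaf stage of plants in peat/vermiculite medium, pots were kept 13-15 days in the greenhouse. Each was then scored visually, 0 meaning no effect and 100 complete control.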

[2] = system: chickweed (common chickweed, Stellaria media); assay: Test C postemergence; conditions: Stellaria media, post-emergence, Postemergence, scale 0 to 100, read-out: Plant response rating, Chickweed
In short: as §1

soybean (Glycine max) = assay: Test C postemergence; conditions: Glycine max, post-emergence, Postemergence, scale 0 to 100, read-out: Plant response rating, Soybean
In short: as §1

[3] = system: galium (catchweed bedstraw, Galium aparine); assay: Test C postemergence; conditions: Galium, post-emergence, 336 h, Postemergence, scale 0 to 100, read-out: Plant response rating, Galium
In short: as §1

[4] = system: giant foxtail (Setaria faberii); assay: Test C postemergence; conditions: Setaria faberi, post-emergence, 336 h, Postemergence, scale 0 to 100, read-out: Plant response rating, Foxtail, Giant
In short: as §1

[5] = system: winter wheat (Triticum aestivum); assay: Test C postemergence; conditions: Triticum aestivum, post-emergence, 336 h, Postemergence, scale 0 to 100, read-out: Plant response rating, Wheat
In short: as §1

[6] = system: morningglory (Ipomoea coccinea); assay: Test C postemergence; conditions: Ipomoea, post-emergence, 336 h, Postemergence, scale 0 to 100, read-out: Plant response rating, Morningglory
In short: as §1

[7] = system: pigweed (Amaranthus retroflexus); assay: Test C postemergence; conditions: Amaranthus retroflexus, post-emergence, 336 h, Postemergence, scale 0 to 100, read-out: Plant response rating, Pigweed
In short: as §1

[8] = system: yellow nutsedge (Cyperus esculentus); assay: Test C postemergence; conditions: Cyperus, post-emergence, 336 h, Postemergence, scale 0 to 100, read-out: Plant response rating, Nutsedge, Yellow
In short: as §1

corn (Zea mays) = assay: Test C postemergence; conditions: Zea mays, post-emergence, 336 h, Postemergence, scale 0 to 100
In short: as §1

[9] = system: Italian ryegrass (Lolium multiflorum); assay: Test C postemergence; conditions: Lolium multiflorum, post-emergence, 336 h, Postemergence, scale 0 to 100, read-out: Plant response rating, Ryegrass, Italian
In short: as §1

[10] = system: large (Lg) crabgrass (Digitaria sanguinalis); assay: Test C postemergence; conditions: Digitaria sanguinalis, post-emergence, 336 h, Postemergence, scale 0 to 100, read-out: Plant response rating, Crabgrass, Large
In short: as §1

[11] = system: blackgrass (Alopecurus myosuroides); assay: Test C postemergence; conditions: Alopecurus myosuroides, post-emergence, 336 h, Postemergence, scale 0 to 100, read-out: Plant response rating, Blackgrass
In short: as §1

[12] = system: velvetleaf (Abutilon theophrasti); assay: Test C postemergence; conditions: Abutilon theophrasti, post-emergence, Postemergence, scale 0 to 100, read-out: Plant response rating, Velvetleaf
In short: as §1

[13] = system: lambsquarters (Chenopodium album); assay: Test C postemergence; conditions: Chenopodium album, post-emergence, 336 h, Postemergence, scale 0 to 100, read-out: Plant response rating, Lambsquarters
In short: as §1

[14] = system: oilseed rape (Brassica napus); assay: Test C postemergence; conditions: Brassica napus, post-emergence, Postemergence, scale 0 to 100, read-out: Plant response rating, Oilseed Rape
In short: as §1

[15] = system: ragweed (common ragweed, Ambrosia elatior); assay: Test C postemergence; conditions: Ambrosia artemisiifolia, post-emergence, 336 h, Postemergence, scale 0 to 100, read-out: Plant response rating, Ragweed
In short: as §1

[16] = system: barnyardgrass (Echinochloa crus-galli); assay: Test C postemergence; conditions: Echinochloa crus-galli, post-emergence, Postemergence, scale 0 to 100, read-out: Plant response rating, Barnyardgrass
In short: as §1

[17] = system: giant foxtail (Setaria faberii); assay: Test C preemergence; conditions: Setaria faberi, pre-emergence, 336 h, scale 0 to 100, read-out: Plant response rating, Foxtail, Giant
In short: as §1

[18] = system: winter wheat (Triticum aestivum); assay: Test C preemergence; conditions: Triticum aestivum, pre-emergence, 336 h, scale 0 to 100, read-out: Plant response rating, Wheat
In short: as §1

[19] = system: large (Lg) crabgrass (Digitaria sanguinalis); assay: Test C preemergence; conditions: Digitaria sanguinalis, pre-emergence, 336 h, scale 0 to 100, read-out: Plant response rating, Crabgrass, Large
In short: as §1

[20] = system: oilseed rape (Brassica napus); assay: Test C preemergence; conditions: Brassica napus, pre-emergence, scale 0 to 100, read-out: Plant response rating, Oilseed Rape
In short: as §1

Compound `FC(F)c1cccc(Oc2ncc(Cl)cn2)c1Oc1ncc(Cl)cn1` [Compound 46, 2,2′-[[3-(difluoromethyl)-1,2-phenylene]bis(oxy)]bis[5-chloropyrimidine]] has a pest or weed control at 16 g/ha ([1]; 16 g ai/ha) of 5%, a pest or weed control at 31 g/ha ([1]; 31 g ai/ha) of 10% and a pest or weed control at 62 g/ha ([1]; 62 g ai/ha) of 5%. It also gave a pest or weed control at 125 g/ha ([1]; 125 g ai/ha) of 5%, a pest or weed control at 16 g/ha ([2]; 16 g ai/ha) of 35% and a pest or weed control at 31 g/ha ([2]; 31 g ai/ha) of 40%. For the same compound, the pest or weed control at 62 g/ha ([2]; 62 g ai/ha) was 60%, the pest or weed control at 125 g/ha ([2]; 125 g ai/ha) was 75% and the plant injury at 31 g/ha (soybean (Glycine max); 31 g ai/ha) was 65%. The plant injury at 62 g/ha (soybean (Glycine max); 62 g ai/ha) was 75%, the plant injury at 125 g/ha (soybean (Glycine max); 125 g ai/ha) was 80% and the pest or weed control at 16 g/ha ([3]; 16 g ai/ha) was 60%. The pest or weed control at 31 g/ha ([3]; 31 g ai/ha) was 60%, the pest or weed control at 62 g/ha ([3]; 62 g ai/ha) was 60% and the pest or weed control at 125 g/ha ([3]; 125 g ai/ha) was 65%. It also gave a pest or weed control at 16 g/ha ([4]; 16 g ai/ha) of 35%, a pest or weed control at 31 g/ha ([4]; 31 g ai/ha) of 20% and a pest or weed control at 62 g/ha ([4]; 62 g ai/ha) of 50%. For the same compound, the pest or weed control at 125 g/ha ([4]; 125 g ai/ha) was 25%, the plant injury at 31 g/ha ([5]; 31 g ai/ha) was 5% and the plant injury at 62 g/ha ([5]; 62 g ai/ha) was 5%. The plant injury at 125 g/ha ([5]; 125 g ai/ha) was 10%, the pest or weed control at 31 g/ha ([6]; 31 g ai/ha) was 80% and the pest or weed control at 62 g/ha ([6]; 62 g ai/ha) was 85%. The pest or weed control at 125 g/ha ([6]; 125 g ai/ha) was 90%, the pest or weed control at 31 g/ha ([7]; 31 g ai/ha) was 70% and the pest or weed control at 62 g/ha ([7]; 62 g ai/ha) was 70%. The pest or weed control at 125 g/ha ([7]; 125 g ai/ha) was 85%, the pest or weed control at 31 g/ha ([8]; 31 g ai/ha) was 0% and the pest or weed control at 62 g/ha ([8]; 62 g ai/ha) was 5%. For the same compound, the pest or weed control at 125 g/ha ([8]; 125 g ai/ha) was 5%, the Corn plant response rating (crop injury, 0 = no effect, 100 = complete kill) at 16 g/ha (corn (Zea mays); 16 g ai/ha) was 5% and the Corn plant response rating (crop injury, 0 = no effect, 100 = complete kill) at 31 g/ha (corn (Zea mays); 31 g ai/ha) was 5%. The Corn plant response rating (crop injury, 0 = no effect, 100 = complete kill) at 62 g/ha (corn (Zea mays); 62 g ai/ha) was 5%, the Corn plant response rating (crop injury, 0 = no effect, 100 = complete kill) at 125 g/ha (corn (Zea mays); 125 g ai/ha) was 10% and the pest or weed control at 31 g/ha ([9]; 31 g ai/ha) was 5%. For the same compound, the pest or weed control at 62 g/ha ([9]; 62 g ai/ha) was 5%, the pest or weed control at 125 g/ha ([9]; 125 g ai/ha) was 10% and the pest or weed control at 16 g/ha ([10]; 16 g ai/ha) was 5%. For the same compound, the pest or weed control at 31 g/ha ([10]; 31 g ai/ha) was 5%, the pest or weed control at 62 g/ha ([10]; 62 g ai/ha) was 10% and the pest or weed control at 125 g/ha ([10]; 125 g ai/ha) was 10%. The pest or weed control at 16 g/ha ([11]; 16 g ai/ha) was 0%, the pest or weed control at 31 g/ha ([11]; 31 g ai/ha) was 0% and the pest or weed control at 62 g/ha ([11]; 62 g ai/ha) was 0%. It also gave a pest or weed control at 125 g/ha ([11]; 125 g ai/ha) of 5%, a pest or weed control at 31 g/ha ([12]; 31 g ai/ha) of 25% and a pest or weed control at 62 g/ha ([12]; 62 g ai/ha) of 55%. For the same compound, the pest or weed control at 125 g/ha ([12]; 125 g ai/ha) was 65%, the pest or weed control at 16 g/ha ([13]; 16 g ai/ha) was 55% and the pest or weed control at 31 g/ha ([13]; 31 g ai/ha) was 70%. It also gave a pest or weed control at 62 g/ha ([13]; 62 g ai/ha) of 85%, a pest or weed control at 125 g/ha ([13]; 125 g ai/ha) of 98% and a plant injury at 31 g/ha ([14]; 31 g ai/ha) of 30%. The plant injury at 62 g/ha ([14]; 62 g ai/ha) was 50%, the plant injury at 125 g/ha ([14]; 125 g ai/ha) was 65% and the pest or weed control at 31 g/ha ([15]; 31 g ai/ha) was 50%. For the same compound, the pest or weed control at 62 g/ha ([15]; 62 g ai/ha) was 65%, the pest or weed control at 125 g/ha ([15]; 125 g ai/ha) was 95% and the pest or weed control at 16 g/ha ([16]; 16 g ai/ha) was 0%. The pest or weed control at 31 g/ha ([16]; 31 g ai/ha) was 5%, the pest or weed control at 62 g/ha ([16]; 62 g ai/ha) was 5% and the pest or weed control at 125 g/ha ([16]; 125 g ai/ha) was 5%. For the same compound, the pest or weed control at 31 g/ha ([17]; 31 g ai/ha, preemergence) was 100%, the pest or weed control at 62 g/ha ([17]; 62 g ai/ha, preemergence) was 100% and the pest or weed control at 125 g/ha ([17]; 125 g ai/ha, preemergence) was 100%. The pest or weed control at 16 g/ha ([17]; Preemergence, 16 g ai/ha) was 75%, the plant injury at 31 g/ha ([18]; 31 g ai/ha, preemergence) was 5% and the plant injury at 62 g/ha ([18]; 62 g ai/ha, preemergence) was 5%. For the same compound, the plant injury at 125 g/ha ([18]; 125 g ai/ha, preemergence) was 50%, the plant injury at 16 g/ha ([18]; Preemergence, 16 g ai/ha) was 0% and the pest or weed control at 31 g/ha ([19]; 31 g ai/ha, preemergence) was 100%. The pest or weed control at 62 g/ha ([19]; 62 g ai/ha, preemergence) was 100%, the pest or weed control at 125 g/ha ([19]; 125 g ai/ha, preemergence) was 100% and the pest or weed control at 16 g/ha ([19]; Preemergence, 16 g ai/ha) was 100%. It also gave a plant injury at 31 g/ha ([20]; 31 g ai/ha, preemergence) of 90%, a plant injury at 62 g/ha ([20]; 62 g ai/ha, preemergence) of 98% and a plant injury at 125 g/ha ([20]; 125 g ai/ha, preemergence) of 100%. It also gave a plant injury at 16 g/ha ([20]; Preemergence, 16 g ai/ha) of 65%.

Source: US20170190671A1, “BIS(ARYL)CATECHOL DERIVATIVES AS HERBICIDES” (E I DU PONT DE NEMOURS AND COMPANY, priority 2014, published 2017)
